From US20110262359A1, “COMPOSITIONS COMPRISING ENZYME-CLEAVABLE PRODRUGS OF ACTIVE AGENTS AND INHIBITORS THEREOF” (priority 2010, published 2011)
Where two headings read alike, the source gives them in different places.

Key:
[1] = Oral administration of Compound KC-2 and trypsin inhibitor Compound 109 to rats; type: in vivo; settings: rat PO; KC-2 6 mg/kg with Compound 109 30 mg/kg
[2] = Oral administration of Compound PC-6 co-dosed with trypsin inhibitor Compound 109 to rats; type: in vivo; settings: rat PO; PC-6 6 mg/kg with Compound 109 0.01 to 30 mg/kg
[3] = Oral administration of Compound KC-2 co-dosed with increasing Compound 109 to rats; type: in vivo; settings: rat PO; KC-2 50 mg/kg with Compound 109 10 to 40 mg/kg
[4] = Oral administration of Compound PC-5 co-dosed with trypsin inhibitor Compound 109 to rats; type: in vivo; settings: rat PO; PC-5 6 mg/kg with Compound 109 0.1 to 10 mg/kg
[5] = Oral administration of Compound KC-3 and trypsin inhibitor Compound 109 to rats; type: in vivo; settings: rat PO; KC-3 50 mg/kg with Compound 109 10 to 40 mg/kg
[6] = Oral administration of Compound KC-4 and trypsin inhibitor Compound 109 to rats; type: in vivo; settings: rat PO; KC-4 6 mg/kg with Compound 109 30 mg/kg
[7] = molecular target: T1, trypsin from bovine pancreas (Bos taurus, UniProt P00760); assay: Effect of trypsin inhibition on in vitro trypsin-mediated release of oxycodone from Compound KC-2; type: biochemical; parameters: trypsin from bovine pancreas; purchased Sigma-Aldrich T8003; host or cells: bovine pancreas (tissue-derived); settings: no trypsin inhibitor; 0.761 mM Compound KC-2, 0.0228 mg/mL trypsin, 37° C.
T1 sequence (P00760 24-246): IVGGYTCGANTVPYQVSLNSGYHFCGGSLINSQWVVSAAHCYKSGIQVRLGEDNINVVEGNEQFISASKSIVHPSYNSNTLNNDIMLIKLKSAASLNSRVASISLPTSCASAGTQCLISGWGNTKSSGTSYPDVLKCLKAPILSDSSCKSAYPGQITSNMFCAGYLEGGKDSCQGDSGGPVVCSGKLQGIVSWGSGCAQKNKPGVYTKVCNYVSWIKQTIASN

[8] = In vitro stability of Compound KC-2 to household chemicals and enzyme preparations; type: physicochemical; settings: vodka, baking soda, WINDEX, vinegar at RT or 80° C.; GNC Super Digestive, tenderizer, subtilisn at RT; 1 or 24 hr
Experimental: Samples were incubated as described and aliquots removed at 1 hr and 24 hr and stabilized by adding each to a solution of 50% or 100% of 85% phosphoric acid solution to achieve a final pH of less than or equal to pH 4. The stabilized aliquots were then diluted 4- to 6-fold with water, vortex-mixed and applied to HPLC.

[9] = Pharmacokinetics of oxycodone prodrug Compound KC-2 or oxycodone following PO administration to rats; type: in vivo; settings: rat PO; Compound KC-2 20 mg/kg vs oxycodone 10 mg/kg
[10] = male, Sprague Dawley, rat, in vivo
[11] = Pharmacokinetics of Compound KC-4 following IV administration to rats; type: in vivo; settings: KC-4 2 mg/kg ([…])
[12] = Pharmacokinetics of Compound KC-4 following PO administration to rats; type: in vivo; settings: rat PO; KC-4 6 mg/kg
human μ-opioid receptor = molecular target: T2, human μ-opioid receptor (Homo sapiens, UniProt P35372); type: cell-based; settings: EC50 at the human μ-opioid receptor, oxycodone or hydrocodone to the prodrug of that drug, same experiment
T2 construct: expressed in transfected cells; host or cells: CHO
T2 sequence (P35372 whole entry): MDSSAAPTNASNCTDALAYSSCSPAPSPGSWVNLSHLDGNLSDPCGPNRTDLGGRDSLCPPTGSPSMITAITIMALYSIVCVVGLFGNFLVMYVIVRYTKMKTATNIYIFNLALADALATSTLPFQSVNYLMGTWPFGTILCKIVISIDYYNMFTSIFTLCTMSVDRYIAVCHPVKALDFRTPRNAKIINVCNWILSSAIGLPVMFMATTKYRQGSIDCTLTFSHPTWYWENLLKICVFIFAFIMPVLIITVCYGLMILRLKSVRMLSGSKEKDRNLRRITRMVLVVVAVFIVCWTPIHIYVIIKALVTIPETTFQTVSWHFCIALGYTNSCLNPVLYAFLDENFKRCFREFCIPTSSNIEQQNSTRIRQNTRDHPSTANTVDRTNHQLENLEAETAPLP

[13] = molecular target: T1, trypsin from bovine pancreas; assay: In vitro trypsin conversion of ketone-modified opioid prodrugs to oxycodone or hydrocodone and inhibition by Compound 109; type: biochemical; parameters: trypsin from bovine pancreas; purchased Sigma-Aldrich T8003; host or cells: bovine pancreas (tissue-derived); settings: 0.761 mM prodrug, no inhibitor, 37° C.
[14] = Pharmacokinetics of Compound KC-5 following PO administration to rats; type: in vivo; settings: rat PO
[15] = Pharmacokinetics of Compound KC-6 following PO administration to rats; type: in vivo; settings: rat PO
[16] = male, Sprague Dawley, rat, in vivo; remark: listed apart in the source
[17] = male, Sprague Dawley, rat, in vivo

## N=C(N)c1ccc2cc(OC(=O)c3ccc(N=C(N)N)cc3)ccc2c1 [Compound 109, 6-carbamimidoylnaphthalen-2-yl 4-(diaminomethyleneamino)benzoate]
[1]
  effect of Compound 109 on release of oxycodone from Compound KC-2: attenuates Compound KC-2's ability to release oxycodone, both by suppressing Cmax and by delaying Tmax
[2]
  effect of Compound 109 on release of hydromorphone from Compound PC-6: ability to attenuate Compound PC-6's ability to release hydromorphone in a dose dependent manner
[3]
  effect of Compound 109 on release of oxycodone from Compound KC-2: ability to attenuate Compound KC-2's ability to release oxycodone in a dose dependent manner
[4]
  effect of Compound 109 on release of hydromorphone from Compound PC-5: ability to attenuate Compound PC-5's ability to release hydromorphone in a dose dependent manner
[5]
  effect of Compound 109 on release of oxycodone from Compound KC-3: attenuates Compound KC-3's ability to release oxycodone, both by suppressing Cmax and AUC and by delaying Tmax
[6]
  effect of Compound 109 on release of hydrocodone from Compound KC-4: attenuates Compound KC-4's ability to release hydrocodone, both by suppressing Cmax and AUC and by delaying Tmax

## COc1ccc2c3c1O[C@H]1C(OC(=O)N(C)CCNC(=O)[C@H](CCCNC(=N)N)NC(C)=O)=CC[C@@]4(O)[C@@H](C2)N(C)CC[C@]314 [Compound KC-2, Oxycodone 6-(N-methyl-N-(2-N′-acetylarginylamino)) ethylcarbamate]
[7]
  Rate of oxycodone formation, umols/h/umol trypsin Average ± sd: 37.4 ± 0.9 umols/h/umol trypsin
[8]
  conversion of Compound KC-2 to oxycodone on exposure to household chemicals and enzyme preparations: less than 10%
[9]
  oxycodone plasma profile compared to administration of oxycodone: yields oxycodone plasma concentrations that exhibit a suppressed Cmax and delayed Tmax compared to administration of oxycodone
[10]
  Plasma/CSF partitioning coefficient: 439

## COc1ccc2c3c1OC1C(OC(=O)N(C)CCNC(=O)[C@H](CCCNC(=N)N)NC(=O)CC(=O)O)=CCC4[C@@H](C2)N(C)CC[C@]314 (stereo partly drawn) [Compound KC-4, N—((S)-1-{2-[(Dihydrocodein-6-enyloxycarbonyl)-methylamino]-ethylcarbamoyl-4-guanidino}-butyl)-malonamic acid]
[11]
  KC-4 Cmax (rat plasma): 3.96 ± 0.57 µg/mL
[12]
  release of hydrocodone after oral administration: leads to release of hydrocodone
Human μ-opioid receptor
  Drug/prodrug relative potency: 15
[13]; 241 BAEE U trypsin/mL
  Rate of hydrocodone formation, umol/h/BAEE U Average ± sd: 0.0911 ± 0.015 umol/h/BAEE U
[13]; 4815 BAEE U trypsin/mL
  Rate of hydrocodone formation, umol/h/BAEE U Average ± sd: 0.0137 ± 0.0014 umol/h/BAEE U

## COc1ccc2c3c1O[C@H]1C(OC(=O)N(CCCCCC(=O)O)CCNC(=O)[C@H](CCCNC(=N)N)NC(C)=O)=CC[C@@]4(O)[C@@H](C2)N(C)CC[C@]314 [Compound KC-5, 6-{[2-(2-Acetylamino-5-guanidino-pentanoylamino)-ethyl]-[(5R, 9R,13S,14S)-4,5a-epoxy-6,7-didehydro-14-hydroxy-3-methoxy-17-methylmorphinan-6-oxy]-1-enyloxycarbonyl-amino}-hexanoic acid]
Administered intravenously in equimolar amounts, 316×50
  expected fold less effective at CNS mu-opioid receptors than oxycodone: about 15,800 fold
[17]
  Compound conc. in CSF: 0.0364 µg/mL
  Compound conc. in Plasma: 54,900 ng/mL
  Plasma/CSF partitioning coefficient: 1,508
Rat IV, 1,508/4.8
  relative plasma/CSF partitioning coefficient of prodrug to oxycodone (fold less CSF penetrant than oxycodone): about 316 fold
[13]; 241 BAEE U trypsin/mL
  Rate of oxycodone formation, umol/h/BAEE U Average ± sd: 0.135 ± 0.005 umol/h/BAEE U
[14]
  oxycodone plasma profile compared to administration of oxycodone: yields oxycodone plasma concentrations that exhibit a suppressed Cmax and AUC and delayed Tmax compared to administration of oxycodone

## COc1ccc2c3c1O[C@H]1C(OC(=O)N(C)C[C@H](NC(=O)[C@H](CCCNC(=N)N)NC(C)=O)C(=O)N(C)CC(=O)O)=CC[C@@]4(O)[C@@H](C2)N(C)CC[C@]314 [Compound KC-6, ({(S)-2-((S)-2-Acetylamino-5-guanidino-pentanoylamino)-3-[(oxycodone-enyloxycarbonyl)-methyl-amino]-propionyl}-methyl-amino)-acetic acid]
[15]
  oxycodone plasma profile compared to administration of oxycodone: yields oxycodone plasma concentrations that exhibit a suppressed Cmax and AUC and delayed Tmax compared to administration of oxycodone
[13]; 241 BAEE U trypsin/mL
  Rate of oxycodone formation, umol/h/BAEE U Average ± sd: 0.0118 ± 0.0042 umol/h/BAEE U
[13]; 4815 BAEE U trypsin/mL
  Rate of oxycodone formation, umol/h/BAEE U Average ± sd: 0.00571 ± 0.0002 umol/h/BAEE U
[16]
  Plasma/CSF partitioning coefficient: 815
